Experimental data from patent US9314510B2, “Human laminin α2 chain LG3 domain and active peptides promoting cell adhesion, spreading, migration, and neurite outgrowth” (SNU R&DB Foundation, priority 2011, dated 2016).
Ends that are not written are not given here.

Legend:
PC12 cells [1] = assay: Inhibition of cell spreading on rLG3 by peptide pretreatment; format: cell-based, rat; settings: PC12 cells pretreated with 500 μg/mL peptide, rLG3 25 μg/mL, 3 h
Protocol: (§1) PC12 cells were pretreated with 500 μg/mL of Ln2-LG3-P1, Ln2-LG3-P2, Ln2-LG3-P3, Ln2-LG3-P4, Ln2-LG3-P5 and SP (scramble peptide) (SEQ ID NO:20) for 10 min at room temperature and then cultured on plates coated with rLG3 (25 μg/mL) in serum-free medium. To observe cell adhesion, PC12 cells were incubated on the coated plates for 1 h and to observe cell spreading, PC12 cells were incubated on the coated plates for 3 h. To observe cell migration, cells were seed into the upper chamber of transwell filters coated with rLG3 (25 μg/mL) and cultured for 24 h. Cell migration was quantified by counting the number of cells that had migrated through the filter.

NIH/3T3 cells = assay: Cell adhesion to Ln2-LG3-P2-coated plates, NIH/3T3; format: cell-based, mouse; settings: 62.5 μg/mL, 1 h
Excerpt: The mouse embryo fibroblast cell line NIH/3T3 was purchased from the American Type Culture Collection (Manassas, Va.) and cultured in Dulbecco's modified Eagle's medium (DMEM) containing 10% FBS.

Schwann cells = assay: Schwann cell adhesion on coated plates; format: cell-based, human; settings: plates coated with 62.5 μg/mL peptide, 1 h, serum-free
PC12 cells [2] = assay: Inhibition of cell migration to rLG3 by peptide pretreatment; format: cell-based, rat; settings: PC12 cells pretreated with 500 μg/mL peptide, transwell coated with rLG3 25 μg/mL, 24 h
Protocol: as §1

CV-1 cells = assay: Cell adhesion to Ln2-LG3-P2-coated plates, CV-1; format: cell-based, African green monkey; settings: 62.5 μg/mL, 1 h
Excerpt: The normal African green monkey kidney fibroblast cell line CV-1 was purchased from the American Type Culture Collection (Manassas, Va.) and cultured in DMEM containing 10% FBS.

PC12 cells [3] = assay: Cell adhesion inhibition assay: peptide pretreatment, adhesion to rLG3-coated plates; format: cell-based, rat; settings: rLG3 25 μg/mL, 1 h
Protocol: Specifically, PC12 cells were pretreated with the Ln2-LG3-P2 peptide in concentrations of 0, 0.2, 0.4, 0.6, 0.8, 1.0, or 1.2 μg/mL for 10 min at room temperature and then cultured on plates coated with rLG3 (25 μg/mL) for 1 h in serum-free medium.
as §1
Specifically, PC12 cells were pretreated with Ln2-LG2-P2 (500 μg/mL) and Ln2-LG3-P2A (500 μg/mL) and then, cell adhesion was observed on plates coated with rLG3 (25 μg/mL).

RNIPPFEGCIWN (RNIPPFEGCIWN-NH2; listed as Homo sapiens) [Ln2-LG3-P2, 12-mer peptide, position 2675 to 2686 in human laminin α2 chain]
inhibition of cell spreading to rLG3 protein (PC12 cells [1]): inhibited cell spreading and migration | cell adhesion activity (NIH/3T3 cells): strong cell adhesion activity | Schwann cell adhesion (Schwann cells): strong effect | inhibition of cell migration to rLG3 protein (PC12 cells [2]): inhibited cell spreading and migration | cell adhesion activity (CV-1 cells): strong cell adhesion activity | cell adhesion to rLG3 after peptide pretreatment (PC12 cells [3]; PC12 cells pretreated with 0 to 1.2 μg/mL peptide for 10 min): decreased in a dose-dependent manner | inhibition of cell adhesion to rLG3 protein (PC12 cells [3]; PC12 cells pretreated with 500 μg/mL peptide): approximately 40%
